Results as given in publication PMC12670396, “Crizotinib- or Ceritinib-Conjugated Platinum(IV) Prodrugs As Potent Multiaction Agents Inducing Antiproliferative Effects in 2D and 3D Cancer Cell Models” (Journal of Medicinal Chemistry, 2025).
Where two headings read alike, the source gives them in different places.

Columns and labels:
[1] = tested on: A549; assay: MTT cytotoxic/antiproliferative activity, 72 h; format: cell-based, human; settings: A549, MTT, 72 h
[2] = tested on: NCI-H2228; assay: MTT cytotoxic/antiproliferative activity, 72 h; format: cell-based, human; settings: NCI-H2228, MTT, 72 h
[3] = tested on: HCT116; assay: MTT cytotoxic/antiproliferative activity, 72 h; format: cell-based, human; settings: HCT116, MTT, 72 h
[4] = tested on: RD; assay: MTT cytotoxic/antiproliferative activity, 72 h; format: cell-based, human; settings: MTT, 72 h
[5] = tested on: MDA-MB-231; assay: MTT cytotoxic/antiproliferative activity, 72 h; format: cell-based, human; settings: MDA-MB-231, MTT, 72 h
[6] = tested on: U87-MG; assay: MTT cytotoxic/antiproliferative activity, 72 h; format: cell-based, human; settings: MTT, 72 h
Procedure: (§1) A panel of six cancer cell lines was used to evaluate the cytotoxic potential of the investigated compounds.
(§2) Cytotoxicity in hepatocyte-like cells (HLC). STEMdiff Hepatocyte Kit was used to generate HLC from human pluripotent stem cells. Cytotoxicity of several of the tested compounds in HLC was evaluated using the sulphorhodamine B assay.

[7] = tested on: IMR-90; assay: MTT cytotoxicity in noncancerous cells, 72 h; format: cell-based, human; settings: IMR-90, MTT
Procedure: (§3) Growth inhibition activity in cancer cell lines was compared with the activity to inhibit the proliferation of normal (noncancerous) cells, namely MRC-5, IMR-90, hTERT-HPNE, and MCF10A cells. Selectivity indexes (SI) were calculated as (IC50 in noncancerous cells)/(average IC50 in cancer cells). […] We further assessed the toxicity of several of the compounds in hepatocyte-like cells (HLC) generated from human pluripotent cells.
as §2

[8] = tested on: MCF10A; assay: MTT cytotoxicity in noncancerous cells, 72 h; format: cell-based, human
Procedure: as §3, §2

[9] = tested on: MRC-5; assay: MTT cytotoxicity in noncancerous cells, 72 h; format: cell-based, human
Procedure: as §3, §2

[10] = tested on: hTERT-HPNE; assay: MTT cytotoxicity in noncancerous cells, 72 h; format: cell-based, human
Procedure: as §3, §2

[11] = tested on: CHOK1; assay: MTT cytotoxicity in NER-proficient cells, 72 h; format: cell-based, Chinese hamster
Source text: (§4) The cytotoxicity assay was also employed to determine whether DNA damage might be involved in the mechanism of action of the tested compounds. The Chinese hamster ovary MMC2 cell line harbors the ERCC3/XPB mutation, which renders it deficient in nucleotide excision repair (NER), whereas the parent line CHOK1 is proficient in this repair process. Thus, the MMC2 line is often more sensitive to agents causing DNA damage, especially NER-reparable DNA damage, than CHOK1. […] Phosphorylation of H2AX is a commonly used marker of DNA damage.
as §2

[12] = tested on: MMC2; assay: MTT cytotoxicity in NER-deficient cells, 72 h; format: cell-based, Chinese hamster; settings: for IC50: MMC2 (NER deficient), MTT, 72 h; for Index F: IC50(CHOK1)/IC50(MMC2)
Source text: as §4, with “damage. […]” for “damage.”

[13] = tested on: panel of six cancer cell lines; assay: MTT, panel of six cancer cell lines (average, ranges); format: cell-based, human; settings: average over six cancer cell lines, read-out: av cancer (average IC50 in cancer cells)
Procedure: as §1, §2

[14] = tested on: normal (noncancerous) cells MRC-5, IMR-90, hTERT-HPNE, MCF10A; assay: MTT, noncancerous cell lines (average, selectivity index); format: cell-based, human; settings: for IC50: average over MRC-5, IMR-90, hTERT-HPNE, MCF10A, read-out: av norm (average IC50 in noncancerous cells); for SI, selectivity index: IC50(normal cells)/averageIC50(cancer cells)
Procedure: as §3, with “pluripotent cells. […]” for “pluripotent cells.”

[15] = Cytotoxicity in hepatocyte-like cells, sulphorhodamine B assay; format: cell-based; settings: hepatocyte-like cells from human pluripotent cells
Procedure: as §3, §2

[16] = tested on: A549 spheroids; assay: Cytotoxicity in 3D spheroids, CellTiter-Glo 3D; format: cell-based, human; settings: Homo sapiens, A549 3D spheroids, 96 h
Procedure: (§5) In the 3D structure, the gradients of gases, nutrients, and therapeutics play a role in the final cytotoxicity of a compound.
(§6) A549 and NCI-H2228 cells were seeded in ultralow attachment, U-shape plates (Corning) at a density of 800 cells/well in the tumorsphere medium consisting of DMEM/F12 medium (Sigma), fibroblast growth factor (20 ng/mL; Sigma), epidermal growth factor 2 (10 ng mL^–1; Sigma), B27 supplement (1×; Gibco), bovine serum albumin, bovine serum albumin (BSA) (1.5 mg mL^–1; Sigma). […] CellTiter-Glo 3D viability assay was used for the experiment evaluation following the manufacturer’s instructions. The bioluminescence signal, proportional to the number of living cells, was measured using the luminescence reader SPARK, and IC50 values were calculated.

[17] = tested on: NCI-H2228 spheroids; assay: Cytotoxicity in 3D spheroids, CellTiter-Glo 3D; format: cell-based, human; settings: Homo sapiens, NCI-H2228 3D spheroids, 96 h
Procedure: as §5, §6

[18] = tested on: CT26 cell line; assay: MTT cytotoxic/antiproliferative activity, 72 h; format: cell-based, murine; settings: Mus musculus
[19] = Stability in RPMI cell culture medium with serum (HPLC); settings: for intact Pt(IV) prodrug still present: after 3 days in the media
Procedure: Two conditions must be met for Pt(IV) complexes to serve as true prodrugs: they must remain stable in biological fluids and should be activated by reduction within the cancer cells to release the bioactive components in their active form, thereby facilitating the rapid onset of cytotoxic effects. […] The reduction in the area of the HPLC peak of the compounds was monitored as a function of time, and their half-lives were calculated (Table and Figures S26,S27).
The stock solutions were prepared by dissolving the compounds in a 1:9 (v/v) mixture of DMSO and RPMI media. After preparation, the samples were injected and stored at 37 °C throughout the experiment. The final concentration of the complexes used for the experiment is 50–60 μM.

[20] = Reduction by L-ascorbic acid in phosphate buffer (RP-HPLC); format: physicochemical; settings: 10 equiv L-ascorbic acid, 10% DMSO in 100 mM phosphate buffer pH 7.4, 37 °C
Procedure: The reduction of Pt(IV) complexes was performed by reacting with 10 equiv of L-ascorbic acid in 10% DMSO in 100 mM phosphate buffer (pH 7.4) at 37 °C, and was monitored by reverse-phase analytical HPLC. The half-lives for the reduction were calculated from the decreasing peak areas as a function of time.
The reduction of the Pt(IV) complexes was performed in the presence of 10 equiv of L-ascorbic acid (AA) in phosphate buffer (100 mM, pH 7.4) at 37 °C using reverse-phase analytical HPLC. […] The platinum complexes were dissolved in 10% DMSO with 50% MeOH and added to 100 mM phosphate buffer (pH 7.4). […] The samples were injected and stored at 37 °C throughout the experiment.

[21] = 10% DMSO in RPMI cell culture medium containing serum, 37 °C, HPLC

SMILES | stability half-life (t 1/2) ([19]; serum) [h] | reduction half-life (t 1/2) [20] [h] | IC50 [13] [nM] | intact Pt(IV) prodrug still present ([19]; 37 °C) | stability half-life (t 1/2) [19, 21] [h] | IC50 [1] [nM] | IC50 [2] [nM] | IC50 [3] [nM] | IC50 [4] [nM] | IC50 [5] [nM] | IC50 [6] [nM] | IC50 [7] [nM] | IC50 [8] [nM] | IC50 ([9]; MRC-5, MTT) [nM] | IC50 [10] [nM] | IC50 [11] [nM] | Index F [12] | IC50 [12] [nM] | SI, selectivity index [14] | IC50 [14] [nM] | other results
O=C1[O][Pt]2([NH][C@@H]3CCCC[C@H]3[NH]2)[O]C1=O [OxPt, oxaliplatin, reference compound] | – | – | – | – | – | 1600 ± 600 | 3800 ± 400 | 1300 ± 100 | 4300 ± 500 | 6200 ± 900 | – | – | – | – | – | – | – | – | – | – | –
C[C@@H](Oc1cc(-c2cnn(C3CCNCC3)c2)cnc1N)c1c(Cl)ccc(F)c1Cl [compound 1, crizotinib] | – | – | – | – | – | – | – | – | – | – | – | – | – | – | – | – | – | – | – | – | IC50 ([1]; Homo sapiens): 1000 ± 200 nM; IC50 ([2]; Homo sapiens): 820 ± 70 nM; IC50 ([6]; Homo sapiens, U-87 MG): 3900 ± 500 nM; IC50 ([3]; Homo sapiens, HCT-116): 1900 ± 500 nM; IC50 ([4]; Homo sapiens): 1400 ± 400 nM; IC50 ([5]; Homo sapiens): 1200 ± 300 nM; IC50 ([7]; Homo sapiens): 7600 ± 900 nM; IC50 ([8]; Homo sapiens, MCF-10A): 6400 ± 700 nM; IC50 ([9]; Homo sapiens, MRC5, MRC-5, MTT): 4300 ± 300 nM; IC50 ([10]; Homo sapiens): 6900 ± 800 nM; IC50 ([11]; Cricetulus griseus, CHO-K1): 1300 ± 500 nM; IC50 ([12]; Cricetulus griseus): 1400 ± 300 nM; IC50 ([13]; Homo sapiens): 1700 nM; IC50 ([14]; Homo sapiens): 6300 nM; IC50 [15]: 9000 ± 3000 nM; IC50 [16]: 3000 ± 1000 nM; IC50 [17]: 1500 ± 300 nM; IC50 [18]: 1800 ± 400 nM
CC(Oc1cc(-c2cnn(C3CCN(C(=O)[O][Pt]([OH])([Cl])[Cl])CC3)c2)cnc1N)c1c(Cl)ccc(F)c1Cl.N.N (stereo not drawn) [compound 2, ctc-[Pt(NH3)2(crizotinib)(OH)Cl2]] | 75 | 2.7 | 1600 | – | – | 800 ± 100 | 740 ± 80 | 2100 ± 500 | 2000 ± 400 | 1900 ± 600 | 2000 ± 700 | 7400 ± 700 | 5100 ± 600 | 4200 ± 900 | 5200 ± 600 | 1500 ± 600 | 1.95 | 770 ± 90 | 3.4 | 5500 | –
C[C@@H](Oc1cc(-c2cnn(C3CCN(C(=O)[O][Pt]4([O]C(=O)CCCc5ccccc5)[O]C(=O)C(=O)[O]4)CC3)c2)cnc1N)c1c(Cl)ccc(F)c1Cl.N[C@@H]1CCCC[C@H]1N [compound 4, ctc-[Pt(DACH)(crizotinib)(PhB)(Ox)]] | >75 | 11.5 | 1500 | more than 80% | – | 1500 ± 400 | 1300 ± 400 | 1000 ± 200 | 1600 ± 200 | 1500 ± 500 | 1800 ± 400 | 2900 ± 400 | 2400 ± 500 | 3100 ± 900 | 3200 ± 600 | 1400 ± 400 | 1.08 | 1300 ± 400 | 1.9 | 2900 | –

Now from value to compound, other results behind:

stability half-life (t 1/2) ([19]; serum) [h] | reduction half-life (t 1/2) [20] [h] | IC50 [13] [nM] | intact Pt(IV) prodrug still present ([19]; 37 °C) | stability half-life (t 1/2) [19, 21] [h] | SMILES | IC50 [1] [nM] | IC50 [2] [nM] | IC50 [3] [nM] | IC50 [4] [nM] | IC50 [5] [nM] | IC50 [6] [nM] | IC50 [7] [nM] | IC50 [8] [nM] | IC50 ([9]; MRC-5, MTT) [nM] | IC50 [10] [nM] | IC50 [11] [nM] | Index F [12] | IC50 [12] [nM] | SI, selectivity index [14] | IC50 [14] [nM] | other results
– | 2.2 | 630 | – | 48 | Cc1cc(Nc2ncc(Cl)c(Nc3ccccc3S(=O)(=O)C(C)C)n2)c(OC(C)C)cc1C1CCN(C(=O)[O][Pt]([OH])([Cl])[Cl])CC1.N.N [compound 6, ctc-[Pt(NH3)2(ceritinib)(OH)Cl2]] | 350 ± 60 | 210 ± 60 | 700 ± 300 | 600 ± 200 | 1100 ± 300 | 800 ± 200 | 4100 ± 900 | 2600 ± 200 | 2600 ± 900 | 2700 ± 500 | 1100 ± 200 | 3.79(*) | 290 ± 90 | 4.8 | 3000 | –
– | 12.5 | 1300 | > 65% | >75 | Cc1cc(Nc2ncc(Cl)c(Nc3ccccc3S(=O)(=O)C(C)C)n2)c(OC(C)C)cc1C1CCN(C(=O)[O][Pt]2([O]C(=O)CCCc3ccccc3)[O]C(=O)C(=O)[O]2)CC1.N[C@@H]1CCCC[C@H]1N [compound 8, ctc-[Pt(DACH)(ceritinib)(PhB)(Ox)]] | 1300 ± 200 | 800 ± 300 | 880 ± 60 | 2200 ± 400 | 1500 ± 400 | – | 5000 ± 600 | 2900 ± 400 | 2300 ± 600 | 3100 ± 600 | 1100 ± 200 | 1.22 | 900 ± 200 | 2.5 | 3300 | –
